Measurements as given in PubChem BioAssay (NCI).
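Assay format: 96-well plates, 48-hour exposure. TGI is the concentration that stops growth completely.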

What was measured:
Assay in all cases: NCI tumour cell line growth inhibition, 48 h
786-0 renal = tested on: 786-0 renal
A498 renal = tested on: A498 renal
A549 NSCLC = tested on: A549 NSCLC
ACHN renal = tested on: ACHN renal
BT-549 breast = tested on: BT-549 breast
CAKI-1 renal = tested on: CAKI-1 renal
CCRF-CEM leukemia = tested on: CCRF-CEM leukemia
COLO 205 colon = tested on: COLO 205 colon
DU-145 prostate = tested on: DU-145 prostate
EKVX NSCLC = tested on: EKVX NSCLC
HCC-2998 colon = tested on: HCC-2998 colon
HCT-116 colon = tested on: HCT-116 colon
HCT-15 colon = tested on: HCT-15 colon
HL-60(TB) leukemia = tested on: HL-60(TB) leukemia
HOP-62 NSCLC = tested on: HOP-62 NSCLC
HOP-92 NSCLC = tested on: HOP-92 NSCLC
HS 578T breast = tested on: HS 578T breast
HT29 colon = tested on: HT29 colon
IGROV1 ovarian = tested on: IGROV1 ovarian
K-562 leukemia = tested on: K-562 leukemia
KM12 colon = tested on: KM12 colon
LOX IMVI melanoma = tested on: LOX IMVI melanoma
M14 melanoma = tested on: M14 melanoma
MALME-3M melanoma = tested on: MALME-3M melanoma
MCF7 breast = tested on: MCF7 breast
MDA-MB-231 breast = tested on: MDA-MB-231 breast
MDA-MB-435 = tested on: MDA-MB-435
MDA-N = tested on: MDA-N
MOLT-4 leukemia = tested on: MOLT-4 leukemia
NCI-H226 lung = tested on: NCI-H226 lung
NCI-H23 lung = tested on: NCI-H23 lung
NCI-H460 lung = tested on: NCI-H460 lung
NCI-H522 lung = tested on: NCI-H522 lung
NCI/ADR-RES ovarian = tested on: NCI/ADR-RES ovarian
OVCAR-3 ovarian = tested on: OVCAR-3 ovarian
OVCAR-4 ovarian = tested on: OVCAR-4 ovarian
OVCAR-5 ovarian = tested on: OVCAR-5 ovarian
OVCAR-8 ovarian = tested on: OVCAR-8 ovarian
PC-3 prostate = tested on: PC-3 prostate
RPMI-8226 leukemia = tested on: RPMI-8226 leukemia
RXF 393 renal = tested on: RXF 393 renal
SF-268 CNS = tested on: SF-268 CNS
SF-295 CNS = tested on: SF-295 CNS
SF-539 CNS = tested on: SF-539 CNS
SK-MEL-2 melanoma = tested on: SK-MEL-2 melanoma
SK-MEL-28 melanoma = tested on: SK-MEL-28 melanoma
SK-MEL-5 melanoma = tested on: SK-MEL-5 melanoma
SK-OV-3 ovarian = tested on: SK-OV-3 ovarian
SN12C renal = tested on: SN12C renal
SNB-19 CNS = tested on: SNB-19 CNS
SNB-75 CNS = tested on: SNB-75 CNS
SR leukemia = tested on: SR leukemia
T-47D breast = tested on: T-47D breast
TK-10 renal = tested on: TK-10 renal
U251 CNS = tested on: U251 CNS
UACC-257 melanoma = tested on: UACC-257 melanoma
UACC-62 melanoma = tested on: UACC-62 melanoma
UO-31 renal = tested on: UO-31 renal
DLD-1 colon = tested on: DLD-1 colon
DMS 114 small cell lung = tested on: DMS 114 small cell lung
DMS 273 small cell lung = tested on: DMS 273 small cell lung
HOP-18 NSCLC = tested on: HOP-18 NSCLC
KM20L2 colon = tested on: KM20L2 colon
LXFL 529 NSCLC = tested on: LXFL 529 NSCLC
M19-MEL melanoma = tested on: M19-MEL melanoma
SNB-78 CNS = tested on: SNB-78 CNS
SW-620 colon = tested on: SW-620 colon

Cc1ccc(C2=CC(=O)/C(=C\C(=O)c3ccc(Br)cc3)O2)c(C)c1
TGI (786-0 renal): 16 µM | TGI (A498 renal): 39.4 µM | TGI (A549 NSCLC): 48.4 µM | TGI (ACHN renal): 12.3 µM | TGI (BT-549 breast): 16.2 µM | TGI (CAKI-1 renal): 9.79 µM | TGI (CCRF-CEM leukemia): > 100 µM | TGI (COLO 205 colon): 14.3 µM | TGI (DU-145 prostate): > 69.5 µM | TGI (EKVX NSCLC): > 67.7 µM | TGI (HCC-2998 colon): 25.4 µM | TGI (HCT-116 colon): 19.8 µM | TGI (HCT-15 colon): 36.9 µM | TGI (HL-60(TB) leukemia): > 100 µM | TGI (HOP-62 NSCLC): > 66.7 µM | TGI (HOP-92 NSCLC): 19.4 µM | TGI (HS 578T breast): 61.8 µM | TGI (HT29 colon): 17.6 µM | TGI (IGROV1 ovarian): 40.4 µM | TGI (K-562 leukemia): 16.4 µM | TGI (KM12 colon): 48.6 µM | TGI (LOX IMVI melanoma): > 21.1 µM | TGI (M14 melanoma): 35.3 µM | TGI (MALME-3M melanoma): 21.3 µM | TGI (MCF7 breast): 23.8 µM | TGI (MDA-MB-231 breast): 26.8 µM | TGI (MDA-MB-435): 38.7 µM | TGI (MDA-N): 19.9 µM | TGI (MOLT-4 leukemia): > 47.9 µM | TGI (NCI-H226 lung): 30.8 µM | TGI (NCI-H23 lung): 56.9 µM | TGI (NCI-H460 lung): 69.2 µM | TGI (NCI-H522 lung): 3.38 µM | TGI (NCI/ADR-RES ovarian): 29.4 µM | TGI (OVCAR-3 ovarian): 16.1 µM | TGI (OVCAR-4 ovarian): 23.9 µM | TGI (OVCAR-5 ovarian): 56.7 µM | TGI (OVCAR-8 ovarian): 19 µM | TGI (PC-3 prostate): 11.6 µM | TGI (RPMI-8226 leukemia): 10 µM | TGI (RXF 393 renal): 14.1 µM | TGI (SF-268 CNS): 31.5 µM | TGI (SF-295 CNS): > 54.2 µM | TGI (SF-539 CNS): 57.1 µM | TGI (SK-MEL-2 melanoma): > 100 µM | TGI (SK-MEL-28 melanoma): 40.1 µM | TGI (SK-MEL-5 melanoma): 41.5 µM | TGI (SK-OV-3 ovarian): 29 µM | TGI (SN12C renal): > 21.8 µM | TGI (SNB-19 CNS): > 49.1 µM | TGI (SNB-75 CNS): 28.2 µM | TGI (SR leukemia): 12.6 µM | TGI (T-47D breast): 43.1 µM | TGI (TK-10 renal): 15.9 µM | TGI (U251 CNS): 43.9 µM | TGI (UACC-257 melanoma): > 48.6 µM | TGI (UACC-62 melanoma): 22.7 µM | TGI (UO-31 renal): 27.7 µM

COc1ccc(/C=C/C(=O)c2c(-c3ccccc3)nn(C)c(=O)c2N2CC2C)cc1 (stereo not drawn)
TGI (786-0 renal): > 100 µM | TGI (A498 renal): 80.7 µM | TGI (A549 NSCLC): > 100 µM | TGI (ACHN renal): > 100 µM | TGI (CAKI-1 renal): > 100 µM | TGI (CCRF-CEM leukemia): 73.9 µM | TGI (COLO 205 colon): 89.2 µM | TGI (DLD-1 colon): > 100 µM | TGI (DMS 114 small cell lung): 90.6 µM | TGI (DMS 273 small cell lung): 68.5 µM | TGI (EKVX NSCLC): 94.3 µM | TGI (HCC-2998 colon): 66.6 µM | TGI (HCT-116 colon): > 100 µM | TGI (HCT-15 colon): 80.5 µM | TGI (HL-60(TB) leukemia): 60.2 µM | TGI (HOP-18 NSCLC): > 100 µM | TGI (HOP-62 NSCLC): > 100 µM | TGI (HOP-92 NSCLC): > 100 µM | TGI (HT29 colon): > 100 µM | TGI (IGROV1 ovarian): > 100 µM | TGI (K-562 leukemia): > 100 µM | TGI (KM12 colon): > 100 µM | TGI (KM20L2 colon): 80 µM | TGI (LOX IMVI melanoma): 34 µM | TGI (LXFL 529 NSCLC): 93.2 µM | TGI (M14 melanoma): > 100 µM | TGI (M19-MEL melanoma): > 100 µM | TGI (MALME-3M melanoma): > 100 µM | TGI (MOLT-4 leukemia): > 100 µM | TGI (NCI-H226 lung): > 100 µM | TGI (NCI-H23 lung): 50.7 µM | TGI (NCI-H460 lung): 65.5 µM | TGI (NCI-H522 lung): 67.1 µM | TGI (OVCAR-3 ovarian): 67.7 µM | TGI (OVCAR-4 ovarian): 84 µM | TGI (OVCAR-5 ovarian): > 100 µM | TGI (OVCAR-8 ovarian): > 100 µM | TGI (RXF 393 renal): 93.6 µM | TGI (SF-268 CNS): > 100 µM | TGI (SF-295 CNS): > 100 µM | TGI (SF-539 CNS): > 100 µM | TGI (SK-MEL-2 melanoma): 47.6 µM | TGI (SK-MEL-28 melanoma): > 100 µM | TGI (SK-MEL-5 melanoma): > 100 µM | TGI (SK-OV-3 ovarian): 71.3 µM | TGI (SN12C renal): > 100 µM | TGI (SNB-19 CNS): > 100 µM | TGI (SNB-75 CNS): 73.9 µM | TGI (SNB-78 CNS): 63.1 µM | TGI (SW-620 colon): 88.2 µM | TGI (TK-10 renal): > 100 µM | TGI (U251 CNS): 85.6 µM | TGI (UACC-257 melanoma): > 100 µM | TGI (UACC-62 melanoma): 71.2 µM | TGI (UO-31 renal): > 100 µM
